Experimental data taken from ChEMBL document CHEMBL4376815, “The Development Process for Discovery and Clinical Advancement of Modern Antimalarials” (J Med Chem, 2019).
≈ marks a conversion by molar mass, not a printed value. Values belong to the compound of their own block, whether it stands above or below them.

How the values were obtained:
[1] = Drug recovery in feces of po dosed human by LC-MS/MS analysis; format: ADME, organism-based; details: faeces, read-out: Drug recovery
[2] = Drug level in human Plasma treated with [14C]-KAE609 assessed metabolite formation; format: ADME, cell-free
[3] = Half life in human; format: ADME
Plasmodium falciparum [4] = experiment: Antimalarial activity against Plasmodium falciparum asexual blood stage form infected in human assessed as parasite clearance half-life at 10 mg, po after 8 days; format: functional, organism-based
Plasmodium falciparum [5] = experiment: Antimalarial activity against Plasmodium falciparum asexual blood stage form infected in human assessed as parasite clearance half-life; format: functional, organism-based
[6] = Half life in monkey at 1 mg/kg, iv by LC-MS analysis; format: ADME, organism-based, Macaca mulatta; details: rhesus monkey, in vivo
[7] = Plasma clearance in Beagle dog at 1 mg/kg, iv by LC-MS analysis; format: ADME, organism-based, Canis lupus familiaris
[8] = Inhibition of Plasmodium vivax DHODH expressed in Escherichia coli using L-dihydroorotate as substrate
[9] = Plasma clearance in monkey at 1 mg/kg, iv by LC-MS analysis; format: ADME, organism-based, Macaca mulatta; details: rhesus monkey
Plasmodium cynomolgi = experiment: Antimalarial activity against Plasmodium cynomolgi liver stage form infected in human hepatocytes; format: functional, organism-based
Plasmodium falciparum [10] = experiment: Antimalarial activity against Plasmodium falciparum asexual blood stage form infected in human assessed as reduction in parasite growth after 10 to 22 days; format: functional
Plasmodium falciparum [11] = experiment: Antimalarial activity against Plasmodium falciparum asexual blood stage form infected in human assessed as reduction in parasite growth at 250 mg, po measured on day 14 by blood smear based assay relative to control; format: functional; design: scale not given: the % may be the effect or the level left
Plasmodium falciparum [12] = experiment: Antimalarial activity against Plasmodium falciparum 3D7 infected in bid administered po dosed NOD-scid IL-2Rgamma null mouse assessed as reduction in parasite growth after 3 day by flow cytometric analysis; format: functional
Plasmodium falciparum [13] = experiment: Antimalarial activity against mefloquine/chloroquine-resistant Plasmodium falciparum asexual blood stage forms assessed as parasite clearance time at 100 times EC50; format: functional
[14] = Half life in Beagle dog at 1 mg/kg, iv by LC-MS analysis; format: ADME, organism-based, Canis lupus familiaris; details: in vivo
Plasmodium falciparum [15] = experiment: Antimalarial activity against Plasmodium falciparum asexual blood stage form infected in human assessed as reduction in parasite growth at 400 mg, po measured on day 14 by qPCR analysis relative to control; format: functional; design: scale not given: the % may be the effect or the level left
Plasmodium falciparum [16] = experiment: Antimalarial activity against Plasmodium falciparum 3D7 infected in qd administered po dosed NOD-scid IL-2Rgamma null mouse assessed as reduction in parasite growth after 3 day by flow cytometric analysis; format: functional
Plasmodium vivax [17] = experiment: Antimalarial activity against Plasmodium vivax infected in human erythrocytes assessed as reduction in [3H]-hypoxanthine incorporation incubated for 40 hrs followed by addition of [3H]-hypoxanthine and measured after 4 hrs by liquid scintillation counting method; format: functional, organism-based
Plasmodium falciparum [18] = experiment: Antimalarial activity against schizont stage of Plasmodium falciparum clinical isolate; format: functional, organism-based
[19] = AUC (0 to infinity) in human at 25 to 1200 mg, po measured up to 480 hrs by HPLC-MS/MS analysis; format: ADME, organism-based; details: in vivo
Plasmodium falciparum [20] = experiment: Antimalarial activity against Plasmodium falciparum asexual blood stage form infected in human assessed as reduction in parasite growth at 400 mg, po after 72 hrs by blood smear based assay relative to control; format: functional; design: scale not given: the % may be the effect or the level left
Plasmodium vivax [21] = experiment: Antimalarial activity against schizont stage of Plasmodium vivax clinical isolate; format: functional, organism-based
[22] = Cmax in human at 25 to 1200 mg, po measured up to 480 hrs by HPLC-MS/MS analysis; format: ADME, organism-based; details: in vivo
[23] = Half life in human at 25 to 1200 mg, po measured up to 480 hrs by HPLC-MS/MS analysis; format: ADME, organism-based; details: in vivo
Plasmodium falciparum [24] = experiment: Antimalarial activity against Plasmodium falciparum asexual blood stage form infected in human assessed as reduction in parasite growth at 400 mg, po measured on day 14 by blood smear based assay relative to control; format: functional; design: scale not given: the % may be the effect or the level left
[25] = AUC in monkey at 1 mg/kg, iv by LC-MS analysis; format: ADME, organism-based, Macaca mulatta; details: rhesus monkey, in vivo
[26] = AUC in Beagle dog at 1 mg/kg, iv by LC-MS analysis; format: ADME, organism-based, Canis lupus familiaris; details: in vivo
Plasmodium falciparum [27] = experiment: Antimalarial activity against Plasmodium falciparum NF54 liver stage form schizonts infected in human hepatocytes assessed as EEF diameter; format: functional, organism-based
Plasmodium falciparum [28] = experiment: Antimalarial activity against mefloquine/chloroquine-resistant Plasmodium falciparum asexual blood stage forms assessed as parasite clearance time at 10 times EC50; format: functional
[29] = Tmax in human at 25 to 1200 mg, po measured up to 480 hrs by HPLC-MS/MS analysis; format: ADME, organism-based; details: in vivo
Plasmodium falciparum [30] = experiment: Antimalarial activity against mefloquine/chloroquine-resistant Plasmodium falciparum asexual blood stage forms; format: functional, organism-based
Plasmodium falciparum [31] = experiment: Antimalarial activity against Plasmodium falciparum asexual blood stage form infected in human assessed as parasite clearance half-life at 150 mg, po after 8 days; format: functional, organism-based
[32] = molecular target: Voltage-gated inwardly rectifying potassium channel KCNH2 (Homo sapiens, UniProt Q12809); experiment: Inhibition of human ERG by patch clamp method
Sequence of Voltage-gated inwardly rectifying potassium channel KCNH2 (Q12809 whole entry): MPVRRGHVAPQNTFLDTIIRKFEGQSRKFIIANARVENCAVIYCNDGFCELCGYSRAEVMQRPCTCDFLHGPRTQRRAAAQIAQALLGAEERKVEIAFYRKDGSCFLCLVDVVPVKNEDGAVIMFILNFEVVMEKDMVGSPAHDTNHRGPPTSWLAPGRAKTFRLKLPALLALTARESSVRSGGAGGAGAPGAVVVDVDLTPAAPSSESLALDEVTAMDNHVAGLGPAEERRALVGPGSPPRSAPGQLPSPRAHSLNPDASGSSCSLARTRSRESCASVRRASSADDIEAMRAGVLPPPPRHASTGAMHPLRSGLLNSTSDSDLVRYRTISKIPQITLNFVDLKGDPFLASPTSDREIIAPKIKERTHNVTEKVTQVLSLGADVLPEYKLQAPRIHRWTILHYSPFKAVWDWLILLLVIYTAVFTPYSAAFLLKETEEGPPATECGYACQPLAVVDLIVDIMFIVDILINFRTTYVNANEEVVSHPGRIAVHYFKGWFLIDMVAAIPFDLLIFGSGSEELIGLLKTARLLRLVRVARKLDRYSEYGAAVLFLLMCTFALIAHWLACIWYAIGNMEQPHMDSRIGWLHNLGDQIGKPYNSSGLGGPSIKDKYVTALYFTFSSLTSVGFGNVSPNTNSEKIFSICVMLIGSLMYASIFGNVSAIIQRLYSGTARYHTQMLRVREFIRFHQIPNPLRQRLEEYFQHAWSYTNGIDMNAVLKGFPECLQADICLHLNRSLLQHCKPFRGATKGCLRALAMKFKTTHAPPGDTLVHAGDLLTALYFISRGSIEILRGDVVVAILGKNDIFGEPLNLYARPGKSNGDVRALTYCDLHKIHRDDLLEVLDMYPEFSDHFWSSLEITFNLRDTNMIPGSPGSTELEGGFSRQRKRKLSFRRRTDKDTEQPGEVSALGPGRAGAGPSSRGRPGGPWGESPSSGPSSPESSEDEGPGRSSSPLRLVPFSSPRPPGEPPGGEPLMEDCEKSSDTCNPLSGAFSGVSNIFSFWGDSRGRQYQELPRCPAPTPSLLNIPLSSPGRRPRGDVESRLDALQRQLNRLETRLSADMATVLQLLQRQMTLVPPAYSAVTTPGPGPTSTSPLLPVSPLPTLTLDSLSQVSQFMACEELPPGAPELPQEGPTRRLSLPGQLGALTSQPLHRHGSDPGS

[33] = Cardiotoxicity in human assessed as effect on QT parameters at 800 mg in presence of PPQ; format: toxicity; details: in vivo
[34] = Tmax in human at 10 to 1200 mg and measured up to 360 hrs by LC-MS/MS method; format: ADME; details: in vivo
[35] = Volume of distribution in human at 10 to 1200 mg and measured up to 360 hrs by LC-MS/MS method; format: ADME; details: in vivo
[36] = Tmax in Wistar Hannover rat at 10 mg/kg, po by LC-MS/MS analysis; format: ADME, organism-based; details: in vivo
Plasmodium vivax [37] = experiment: Antimalarial activity against Plasmodium vivax assessed as reduction in parasite growth after 72 hrs by SYBR-green based fluorescence assay; format: functional, organism-based
[38] = Half life in Wistar Hannover rat at 10 mg/kg, po by LC-MS/MS analysis; format: ADME, organism-based; details: in vivo
[39] = Plasma clearance in Wistar Hannover rat at 3 mg/kg, iv by LC-MS/MS analysis; format: ADME, organism-based
Plasmodium falciparum [40] = experiment: Antimalarial activity against Plasmodium falciparum infected in human assessed as median parasite clearance time at 800 […], po and measured on day 5; format: functional
[41] = Cmax in human at 10 to 1200 mg and measured up to 360 hrs by LC-MS/MS method; format: ADME; details: in vivo
Plasmodium vivax [42] = experiment: Antimalarial activity against Plasmodium vivax infected in human assessed as median parasite clearance time at 400 […], po administered for 3 consecutive day and measured on day 5; format: functional
[43] = Half life in human infected with Plasmodium falciparum at 400 mg administered for 3 consecutive days and measured up to 192 hrs; format: ADME; details: in vivo
[44] = Half life in human at 10 to 1200 mg and measured up to 360 hrs by LC-MS/MS method; format: ADME; details: in vivo
[45] = Cmax in Wistar Hannover rat at 10 mg/kg, po by LC-MS/MS analysis; format: ADME, organism-based; design: dose 10 mg/kg, route oral; details: in vivo
Plasmodium falciparum [46] = experiment: Antimalarial activity against Plasmodium falciparum assessed as reduction in parasite growth after 72 hrs by SYBR-green based fluorescence assay; format: functional, organism-based
[47] = Half life in Wistar Hannover rat at 3 mg/kg, iv by LC-MS/MS analysis; format: ADME, organism-based; details: in vivo
Plasmodium vivax [48] = experiment: Antimalarial activity against Plasmodium vivax infected in human assessed as median parasite clearance time at 800 […], po and measured on day 5; format: functional
[49] = Half life in human infected with Plasmodium vivax at 400 mg administered for 3 consecutive days and measured up to 192 hrs; format: ADME; details: in vivo
[50] = Oral bioavailability in Wistar Hannover rat at 10 mg/kg by LC-MS/MS analysis; format: ADME, organism-based; details: in vivo
[51] = Apparent clearance in human at 10 to 1200 mg and measured up to 360 hrs by LC-MS/MS method; format: ADME; details: in vivo, read-out: CL(app)
Plasmodium falciparum [52] = experiment: Antimalarial activity against Plasmodium falciparum infected in human assessed as median parasite clearance time at 400 […], po administered for 3 consecutive day and measured on day 5; format: functional
[53] = Cardiotoxicity in human assessed as effect on QT parameters at 800 mg; format: toxicity
[54] = Volume of distribution at steady state in Wistar Hannover rat at 3 mg/kg, iv by LC-MS/MS analysis; format: ADME, organism-based; details: in vivo, read-out: Vdss
[55] = Cardiotoxicity in human assessed as effect on QT parameters at 1280 mg; format: toxicity
Cytochrome P450 3A4 = Cytochrome P450 3A4 (Homo sapiens, UniProt P08684); experiment: Inhibition of CYP3A4 (unknown origin); format: ADME
Sequence of Cytochrome P450 3A4 (P08684 whole entry): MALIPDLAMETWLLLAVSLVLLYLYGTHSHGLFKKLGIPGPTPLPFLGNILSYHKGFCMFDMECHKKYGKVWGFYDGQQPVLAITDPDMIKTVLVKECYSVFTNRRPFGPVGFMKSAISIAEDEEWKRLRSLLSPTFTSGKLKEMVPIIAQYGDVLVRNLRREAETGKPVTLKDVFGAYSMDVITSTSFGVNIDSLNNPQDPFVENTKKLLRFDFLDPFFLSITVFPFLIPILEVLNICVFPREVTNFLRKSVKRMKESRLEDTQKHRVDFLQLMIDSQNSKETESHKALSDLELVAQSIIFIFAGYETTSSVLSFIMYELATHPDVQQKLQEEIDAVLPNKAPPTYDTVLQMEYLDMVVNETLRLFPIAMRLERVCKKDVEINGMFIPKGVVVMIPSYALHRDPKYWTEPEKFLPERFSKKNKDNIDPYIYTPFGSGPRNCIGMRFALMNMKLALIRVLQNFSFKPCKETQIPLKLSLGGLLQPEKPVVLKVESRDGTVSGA

[56] = Plasmodium falciparum, 3D7, po, 72 h

Tmax [34]: 1 to 6 h
Vd [35]: 1610 to 2410 L
Tmax [36]: 2 h
half-life [38]: 5.7 h
clearance [39]: 90 mL/min/kg
Cmax [41]: 7.6 to 2720 ng/mL
half-life [43]: 44 h
half-life [44]: 47 to 70 h
Cmax [45]: 139 ng/mL
half-life [47]: 6.6 h
half-life [49]: 44 h
bioavailability [50]: 48%
clearance [51]: 267 to 583 mL/min
Vd [54]: 29.5 L/kg
SMILES: CC1(C)c2nc(-c3ccc(F)cc3)c(Nc3ccc(F)cc3)n2CCN1C(=O)CN [GANAPLACIDE]
Activity [33]: 58.3%
EC50 (Plasmodium vivax [37]): 5.5 nM
Time (Plasmodium falciparum [40]): 49 h
Time (Plasmodium vivax [42]): 24 h
EC50 (Plasmodium falciparum [46]): 12.6 nM
Time (Plasmodium vivax [48]): 24 h
Time (Plasmodium falciparum [52]): 45 h
Activity [53]: 87.5%

Ki (Cytochrome P450 3A4): 90 nM
SMILES: Clc1ccc2c(N3CCN(CCCN4CCN(c5ccnc6cc(Cl)ccc56)CC4)CC3)ccnc2c1 [PIPERAQUINE]
Activity [55]: 79.2%

Further lines, the compound ahead of its results:

SMILES: C[C@H]1Cc2c([nH]c3cc(Cl)c(F)cc23)-c2c3cc(Cl)c(O)cc3nc(=O)n21
dose excreted [1]: 36%
Drug uptake [2]: 12%
half-life [3]: 25 h

SMILES: O[C@@H](c1cc(C(F)(F)F)nc2c(C(F)(F)F)cccc12)[C@H]1CCCCN1
T1/2 (Plasmodium falciparum [4]): 6.2 h

SMILES: Cc1cc(Nc2ccc(S(F)(F)(F)(F)F)cc2)n2nc(C(C)(F)F)nc2n1 [DSM-265]
T1/2 (Plasmodium falciparum [5]): 5 h
half-life [6]: 10 to 45 h
clearance [7]: 0.367 to 0.9 mL/min/kg
EC50 [8]: 20 nM
clearance [9]: 0.367 to 0.9 mL/min/kg
EC50 (Plasmodium cynomolgi): 0.13 µg/mL (≈ 0.313 µM)
MIC (Plasmodium falciparum [10]): 1.04 µg/mL (≈ 2.5 µM)
Activity (Plasmodium falciparum [11]): 88%
MIC (Plasmodium falciparum [12]): 6.4 mg/kg
ED90 (Plasmodium falciparum [12]; [56]): 1.5 mg/kg
Time (Plasmodium falciparum [13]): 82 h
half-life [14]: 10 to 45 h
Activity (Plasmodium falciparum [15]): 100%
MIC (Plasmodium falciparum [16]): 13 mg/kg
ED90 (Plasmodium falciparum [16]; [56]): 3 mg/kg
EC50 (Plasmodium vivax [17]): 529 nM
EC50 (Plasmodium falciparum [18]): 918 nM
AUC(0-inf) [19]: 107 to 4720 µg·h/mL
Activity (Plasmodium falciparum [20]): 100%
EC50 (Plasmodium vivax [21]): 190 nM
Cmax [22]: 1310 to 34800 ng/mL
half-life [23]: 86 to 118 h
Activity (Plasmodium falciparum [24]): 100%
AUC [25]: 16.7 to 46.9 µg·h/mL
AUC [26]: 16.7 to 46.9 µg·h/mL
EC50 (Plasmodium falciparum [27]): 0.0057 µg/mL (≈ 0.0137 µM)
Time (Plasmodium falciparum [28]): 85 h
Tmax [29]: 1.5 to 4 h
EC50 (Plasmodium falciparum [30]): 7 to 16 nM
T1/2 (Plasmodium falciparum [31]): 9.4 h
IC50 [32]: 1590 to 6980 nM
